Data reported in publication PMC10384675, “Novel Thiazolidine-2,4-dione-trimethoxybenzene-thiazole Hybrids as Human Topoisomerases Inhibitors” (Pharmaceuticals, 2023).

Experiments:
[1] = tested on: mouse BALB/3T3 embryonic fibroblasts; assay: MTT cytotoxicity assay, BALB/3T3; assay type: cell-based; details: 72 h, normal cells
Method: (§1) All of the synthesized compounds (7a–f) were studied to test their anticancer activity toward the estrogen receptor-positive (ER+) MCF-7 and the triple-negative MDA-MB-231 breast cancer cells (ER-, PR- and HER-2/Neu not overexpressed) and A2058 melanoma cells. Cells were incubated for 72 h with different concentrations of the compounds, and then the viability was checked by the MTT assay. […] Moreover, we checked the cytotoxicity of all of the synthesized compounds against the human MCF-10A non-malignant breast epithelial cells and mouse BALB/3T3 embryonic fibroblasts, in order to evaluate their selectivity on cancer cells.
(§2) The used cell lines (breast cancer cell lines MCF-7 and MDA-MB-231, melanoma cell line A2058 and human mammary epithelial cell line MCF-10A) were obtained from American Type Culture Collection (ATCC, Manassas, VA, USA) and cultured as already reported. The mouse BALB/3T3 embryonic fibroblasts were also purchased from American Type Culture Collection (ATCC, Manassas, VA, USA) and cultured in DMEM high glucose supplemented with 10% bovine calf serum (BCS) and 100 U mL^−1 penicillin/streptomycin.
(§3) MTT assay (Sigma Aldrich (St. Louis, MO, USA)) was performed for evaluating the in vitro anticancer activities of the compounds, as previously indicated. Different concentrations (0.1, 1, 10, 25, 50, and 100 μM) of the compounds were employed, with a 72 h endpoint. IC50 values were obtained from the percent (%) of control using GraphPad Prism 9 (GraphPad Software, La Jolla, CA, USA).

[2] = tested on: human MCF-10A non-malignant breast epithelial cells; assay: MTT cytotoxicity assay, MCF-10A; assay type: cell-based; details: 72 h, normal cells
Method: as §1, §2, §3

A2058 melanoma cells = assay: MTT cell viability assay, A2058; assay type: cell-based; details: Homo sapiens, 72 h
Method: as §1, §2, §3

[3] = tested on: MDA-MB-231 breast cancer cells; assay: MTT cell viability assay, MDA-MB-231; assay type: cell-based; details: Homo sapiens, 72 h
Method: as §1, §2, §3

[4] = tested on: MCF-7 breast cancer cells; assay: MTT cell viability assay, MCF-7; assay type: cell-based, human; details: Homo sapiens, MCF7; MTT, 72 h
Method: as §1, §2, §3

hTopo II = target: T1, hTopo II (Homo sapiens, UniProt P11388); assay: hTopo II decatenation assay; assay type: biochemical; design: key to Topoisomerase Inhibition hTopo II: (+) inhibition; (−) no inhibition; (+/−) partial inhibition; details: for hTopo II activity inhibition (in words): kDNA
T1 construct: purchased TopoGEN, Port Orange, FL
T1 sequence (P11388 whole entry): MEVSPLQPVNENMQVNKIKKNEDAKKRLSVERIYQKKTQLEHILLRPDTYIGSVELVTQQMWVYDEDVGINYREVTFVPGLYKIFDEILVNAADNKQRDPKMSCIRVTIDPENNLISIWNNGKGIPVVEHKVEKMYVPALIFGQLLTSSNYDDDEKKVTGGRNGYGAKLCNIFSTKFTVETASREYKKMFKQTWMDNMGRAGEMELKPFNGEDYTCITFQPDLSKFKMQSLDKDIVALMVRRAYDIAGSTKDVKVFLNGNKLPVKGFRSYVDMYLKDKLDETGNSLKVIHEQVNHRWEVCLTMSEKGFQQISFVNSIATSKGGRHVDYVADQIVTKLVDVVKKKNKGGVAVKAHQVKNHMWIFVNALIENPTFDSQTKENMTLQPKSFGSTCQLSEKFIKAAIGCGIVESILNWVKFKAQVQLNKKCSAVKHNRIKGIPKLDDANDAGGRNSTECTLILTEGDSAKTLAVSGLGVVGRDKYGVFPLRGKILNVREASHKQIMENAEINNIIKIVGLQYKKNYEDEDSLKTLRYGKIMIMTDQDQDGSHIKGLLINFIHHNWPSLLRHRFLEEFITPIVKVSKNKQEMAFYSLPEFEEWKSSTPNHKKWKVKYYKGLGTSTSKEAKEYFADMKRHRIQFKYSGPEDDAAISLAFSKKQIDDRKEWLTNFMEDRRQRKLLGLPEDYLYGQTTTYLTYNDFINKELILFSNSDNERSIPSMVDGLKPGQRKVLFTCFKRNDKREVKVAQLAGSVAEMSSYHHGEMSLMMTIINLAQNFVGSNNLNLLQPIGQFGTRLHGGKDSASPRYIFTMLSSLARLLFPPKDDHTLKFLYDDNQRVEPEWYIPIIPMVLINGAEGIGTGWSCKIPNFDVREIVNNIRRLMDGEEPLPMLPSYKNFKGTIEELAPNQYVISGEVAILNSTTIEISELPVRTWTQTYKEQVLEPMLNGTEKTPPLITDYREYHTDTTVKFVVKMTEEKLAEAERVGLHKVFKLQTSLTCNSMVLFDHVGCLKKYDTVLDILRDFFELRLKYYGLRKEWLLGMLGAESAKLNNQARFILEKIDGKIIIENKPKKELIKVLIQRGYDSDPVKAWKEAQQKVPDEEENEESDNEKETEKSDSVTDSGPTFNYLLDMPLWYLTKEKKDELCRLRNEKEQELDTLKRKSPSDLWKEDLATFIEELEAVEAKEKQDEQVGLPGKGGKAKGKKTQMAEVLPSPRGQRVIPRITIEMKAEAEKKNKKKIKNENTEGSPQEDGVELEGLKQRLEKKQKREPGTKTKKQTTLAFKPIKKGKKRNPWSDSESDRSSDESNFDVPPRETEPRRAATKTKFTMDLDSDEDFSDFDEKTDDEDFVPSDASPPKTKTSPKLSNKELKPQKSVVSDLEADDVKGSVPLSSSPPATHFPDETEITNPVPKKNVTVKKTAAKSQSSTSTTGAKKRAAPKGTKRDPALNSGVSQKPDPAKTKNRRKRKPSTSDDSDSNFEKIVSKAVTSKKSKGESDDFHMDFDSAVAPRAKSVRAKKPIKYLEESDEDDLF
Method: The linear kDNA (Figure 4a,b, lanes A), decatenated kDNA (Figure 4a,b, lanes B) and the catenated circles of kDNA (Figure 4a,b, lanes C) were used as markers. A parallel experiment was performed using ellipticine as reference molecule.
(§4) hTopo I relaxation assays were performed by incubating the substrate (supercoiled pHOT1) with the recombinant hTopo I (TopoGEN, Port Orange, FL, USA) and compounds, as indicated in the supplier protocol (TopoGEN, Port Orange, FL, USA), with some revisions. hTopo II decatenation assays were conducted by incubating the kinetoplast DNA substrate (kDNA) with the hTopo II (TopoGEN, Port Orange, FL) and studied compounds, as indicated in the supplier procedures (TopoGEN, Port Orange, FL, USA), with some changes as in [80].
Figure 4 hTopo II decatenation assay. […] The same experiment was performed using ellipticine (c). Lane 1, decatenated kDNA marker; lane 2, linear kDNA marker; lane 3, CTRL (DMSO), lanes 4–5, ellipticine 10 and 50 µM, respectively.

hTopo I = target: T2, hTopo I (Homo sapiens, UniProt P11387); assay: hTopo I relaxation assay; assay type: biochemical; design: key to Topoisomerase Inhibition hTopo I: (+) inhibition; (−) no inhibition; (+/−) partial inhibition; details: for hTopo I activity inhibition (in words): supercoiled pHOT1
T2 construct: purchased TopoGEN, Port Orange, FL, USA
T2 sequence (P11387 1-765): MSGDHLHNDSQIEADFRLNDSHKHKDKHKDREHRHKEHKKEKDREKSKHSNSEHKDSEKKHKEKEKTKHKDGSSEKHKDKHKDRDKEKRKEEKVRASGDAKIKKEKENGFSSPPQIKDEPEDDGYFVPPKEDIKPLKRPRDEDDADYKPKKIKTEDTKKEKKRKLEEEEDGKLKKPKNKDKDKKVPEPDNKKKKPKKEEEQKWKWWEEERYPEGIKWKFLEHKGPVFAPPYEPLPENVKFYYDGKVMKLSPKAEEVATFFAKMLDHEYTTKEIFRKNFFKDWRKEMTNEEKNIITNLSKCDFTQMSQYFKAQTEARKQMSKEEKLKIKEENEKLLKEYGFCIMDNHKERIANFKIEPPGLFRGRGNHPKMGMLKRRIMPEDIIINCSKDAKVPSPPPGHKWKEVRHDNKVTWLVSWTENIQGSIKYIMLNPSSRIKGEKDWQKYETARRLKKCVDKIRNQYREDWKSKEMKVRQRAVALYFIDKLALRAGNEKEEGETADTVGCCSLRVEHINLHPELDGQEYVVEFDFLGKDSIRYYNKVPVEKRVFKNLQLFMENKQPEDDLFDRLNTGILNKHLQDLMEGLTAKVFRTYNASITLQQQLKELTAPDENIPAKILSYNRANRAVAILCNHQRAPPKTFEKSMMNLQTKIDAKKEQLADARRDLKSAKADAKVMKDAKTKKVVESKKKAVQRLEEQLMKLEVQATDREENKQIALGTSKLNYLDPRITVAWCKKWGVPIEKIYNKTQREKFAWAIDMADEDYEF
Text: Thiazoles and their derivatives are extensively recognized as chemical nuclei of great interest for producing molecules with multiple biological properties. In particular, several compounds bearing these heterocycles were studied for their capability to interfere with DNA topoisomerases (Topos), ubiquitous enzymes essential in several key cellular processes. In recent years, these enzymes have become popular targets in cancer therapy; indeed, the topoisomerase inhibitors can induce damage to genome integrity. Consequently, the inhibition of topoisomerases leads to cell death by apoptosis and, thus, is fatal. Thus, we carried out two specific tests in vitro for both of the Topos, namely the hTopo I relaxation and the hTopo II decatenation assays. For the hTopo I relaxation assay, we exposed the enzyme to the most interesting compounds, 7b–7e, at the final concentration of 10 µM for 1 h at 37 °C, using as substrate the supercoiled pHOT1 (see Section 4 Materials and Methods for more details). […] Contrarily, in the CTRL lane, where the hTopo I was exposed to only vehicle (DMSO), several bands due to pHOT1 DNA cleavage were present (Figure 3, lane C). […] In Figure 3, panel B, the hTopo I inhibition results using ellipticine, as reference molecule are shown. […] An electrophoretic mobility shift of the pHOT1 DNA was also noticeable, due to the intercalating properties of ellipticine.
as §4
Figure 3 hTopo I relaxation assay. Plasmid pHOT1, used as substrate, was incubated with hTopo I with or without the studied compounds 7b–7e (10 µM concentration), panel (A), and with or without ellipticine (10 and 50 µM concentration), panel (B). Lane A, relaxed DNA marker; lane B, pHOT1 supercoiled DNA, lane C, CTRL (DMSO), lane D–G, compounds 7b–7e 10 µM, respectively. Lane 1, pHOT1 supercoiled DNA; lane 2, CTRL (DMSO), lanes 3–4, ellipticine 10 and 50 µM, respectively.

| SMILES | IC50 (A2058 melanoma cells) | IC50 [3] | melting point | IC50 [4] | Topoisomerase Inhibition hTopo II (hTopo II; 10 µM) | Topoisomerase Inhibition hTopo II (hTopo II; 50 µM) | Topoisomerase Inhibition hTopo I (hTopo I; 10 µM) | IC50 [1] | IC50 [2] | hTopo II activity inhibition (in words) (hTopo II; 50 µM) | hTopo I activity inhibition (in words) (hTopo I; 10 µM, 1 h, 37 °C) | Topoisomerase Inhibition hTopo I (hTopo I; 50 µM) | hTopo I activity inhibition (in words) (hTopo I; 50 µM) |
| --- | --- | --- | --- | --- | --- | --- | --- | --- | --- | --- | --- | --- | --- |
| COc1cc(/C=C2\SC(=O)N(CC(=O)Nc3nccs3)C2=O)cc(OC)c1OC [compound 7a, (Z)-2-(5-(3,4,5-Trimethoxybenzylidene)thiazolidin-2,4-dion-3-yl)-N-(thiazol-2-yl)acetamide] | > 100 µM | 27.5 ± 0.9 µM | 245 to 247 °C | > 100 µM |  |  |  | 89.2 ± 1.1 µM | > 100 µM |  |  |  |  |
| COc1cc(/C=C2\SC(=O)N(CC(=O)Nc3nc4ccccc4s3)C2=O)cc(OC)c1OC [compound 7f, (Z)-2-(5-(3,4,5-Trimethoxybenzylidene)thiazolidin-2,4-dion-3-yl)-N-(benzo[d]thiazol-2-yl)acetamide] | 24.6 ± 1.1 µM | 50.5 ± 0.8 µM |  | 17.4 ± 1.1 µM | − | + | + | > 100 µM | > 100 µM |  |  |  |  |
| Cc1c2ccncc2c(C)c2c1[nH]c1ccccc12 [ellipticine, reference compound] | 1.33 ± 0.9 µM | 1.73 ± 0.4 µM |  | 1.15 ± 0.5 µM | +/− | + | + | 0.97 ± 0.1 µM | 1.09 ± 0.1 µM | totally block | able to block the hTopo I activity | + | able to block the hTopo I activity |

Continued by falling IC50 (A2058 melanoma cells), values first:

| IC50 (A2058 melanoma cells) | IC50 [3] | melting point | IC50 [4] | Topoisomerase Inhibition hTopo II (hTopo II; 10 µM) | Topoisomerase Inhibition hTopo II (hTopo II; 50 µM) | Topoisomerase Inhibition hTopo I (hTopo I; 10 µM) | SMILES | IC50 [1] | IC50 [2] | hTopo II activity inhibition (in words) (hTopo II; 50 µM) | hTopo I activity inhibition (in words) (hTopo I; 10 µM, 1 h, 37 °C) | Topoisomerase Inhibition hTopo I (hTopo I; 50 µM) | hTopo I activity inhibition (in words) (hTopo I; 50 µM) |
| --- | --- | --- | --- | --- | --- | --- | --- | --- | --- | --- | --- | --- | --- |
| 6.4 ± 0.9 µM | 33.4 ± 1 µM |  | 34.1 ± 0.7 µM | − | + | − | COc1cc(/C=C2\SC(=O)N(CC(=O)Nc3nc(-c4ccc(Cl)cc4)cs3)C2=O)cc(OC)c1OC [compound 7d, (Z)-2-(5-(3,4,5-Trimethoxybenzylidene)thiazolidin-2,4-dion-3-yl)-N-(4-(4-chlorophenyl)thiazol-2-yl)acetamide] | 36.1 ± 1 µM | > 100 µM |  | not able to inhibit the relaxation activity |  |  |
| 4.8 ± 1 µM | 32.8 ± 0.6 µM |  | 19.5 ± 0.6 µM | − | + | − | COc1cc(/C=C2\SC(=O)N(CC(=O)Nc3nc(-c4ccc(C)cc4)cs3)C2=O)cc(OC)c1OC [compound 7c, (Z)-2-(5-(3,4,5-Trimethoxybenzylidene)thiazolidin-2,4-dion-3-yl)-N-(4-(4-methylphenyl)thiazol-2-yl)acetamide] | > 100 µM | 46.4 ± 1.1 µM |  | not able to inhibit the relaxation activity |  |  |
| 3.5 ± 1.1 µM | 17.9 ± 1.1 µM |  | 8.5 ± 1.2 µM | − | − | − | COc1cc(/C=C2\SC(=O)N(CC(=O)Nc3nc(-c4ccccc4)cs3)C2=O)cc(OC)c1OC [compound 7b, (Z)-2-(5-(3,4,5-Trimethoxybenzylidene)thiazolidin-2,4-dion-3-yl)-N-(4-phenylthiazol-2-yl)acetamide] | > 100 µM | > 100 µM | unable to inhibit the hTopo II activity | not able to inhibit the relaxation activity |  |  |
